Results published in patent US20160302411A1, “BLENDS AND THEIR USE IN THE CONTROLLING AND/OR TRAPPING OF MOTHS” (BIOFORSK (THE NORWEGIAN INSTITUTE FOR AGRICULTURAL AND …, priority 2013, published 2016).

system: antennae of mated female C. nigricana; experiment: GC-EAD electro-antennography, antennal response to synthetic pea volatiles; set-up: species or system Cydia nigricana; settings: 10 μg in 10 μl hexane on filter paper, puff 10 ml/sec during 0.2 sec
Experimental: C. nigricana were collected as larvae in the North of Hesse, Germany. The keeping of the insects followed the protocol of Thöming and Saucke (2011). Emerging adults mated in Plexiglas cages (30×30×30 cm) in a climate chamber (18±2° C., 60-70% RH, 18:6h L:D). The moths were provided with 10%-honey water solution and water until the experiment. Antennal recordings and wind tunnel tests were done with five-to-seven-days old mated females. After the experiments, females were dissected to verify their mating status and only mated females were used for analysis.
The synthetic odour sources were prepared to mimic natural pea flower odour. The quantity, ratio and blend composition was based on the identification and quantification of compounds emitted from detached pea flowers (50 flowers/headspace sample; mean value, n=10) of P. sativum (cv. AVOLA). The synthetic analogues of all 28 identified compounds released from pea plant material (Table 1) were used for combined gas chromatography-electroantennal detection (GC-EAD) analysis.
GC-EAD was used for antennal recordings on a HP 6890N gas chromatograph, equipped with an HP-5 (30 m×320 μm×0.25 μm; Agilent, Santa Clara, Calif., US) capillary GC column, programmed from 40° C. (hold for 0.5 min) at 8° C./min to 160° C., then 25° C./min to 230° C. (hold for 4 min), and coupled with an electro-antennogram apparatus (Syntech, Hilversum, The Netherlands). The outlet of the GC column was split in a 1:1 ratio between the flame ionization detector (FID) and a pair of cut pea moth antennae which was connected to the EAD. The antennae were mounted in a holder (Syntech) between two silver electrodes, using electrically conductive Gel (Parker, Fairfield, N.J., US). The EAD capillary effluent was delivered to the antennae through a heated transfer line (Syntech) in a glass tube (12 cm×8 mm) in which humidified air was flowing through. The antennal signal and the FID signal were amplified and recorded simultaneously using Syntech software. Each sample injected on the GC contained 5-9 synthetic compounds with different retention times. Each compound was injected at four doses (200 ng, 60 ng, 20 ng, 6 ng), equivalent to 100 ng, 30 ng, 10 ng, 3 ng tested on the antennae. The antennal responses towards compounds and dose rates, respectively, were replicated three to five times, always using a new pair of antennae. […] Only antennae with differences less than 5 μV between the puff before and after the treatment were used for analysis.

SMILES | antennal response to odour puff (antennal condition test)
C=C/C=C(\C)CCC=C(C)C [DMNT, 4,8-dimethyl-1, (E) 3,7-nonatriene, reference compound] | reproducible antennal responses

same assay, conditions: GC-EAD dose response over four doses (FIG. 1)

SMILES | increase of antennal response with dose, ANOVA P
CCCCCCO [1-hexanol] | 0.0003
CCC/C=C/C=O [2-(E)-hexenal] | 0.0139
CCC/C=C/CO [(E)-2-hexen-1-ol] | 0.0049
C=C/C(C)=C/CC=C(C)C [(E)-β-ocimene] | 0.0051
CC/C=C\CCO [(Z)-3-hexenol] | 0.6578
CC/C=C\CCOC(C)=O [(Z)-3-hexenyl acetate] | 0.0091
C=C/C(C)=C\CC=C(C)C [(Z)-β-ocimene] | 0.0252
CCCCCCCCC=O [nonanal] | 0.0067
CCCCCCCC=O [octanal] | < 0.0001
